Data from patent US10174065B2, “Antidiabetic enolic glucoside of phenylpyruvic acid” (ZADEC APS, priority 2010, dated 2019).

Legend:
plasma glucose level = experiment: Reduction in plasma glucose of a diabetic primate after a single dose (FIG. 1); assay type: in vivo, monkeys; details: diabetic primate M1081, baseline glucose 6.3 mmol/L, over 6 h after a single dose, 10.4 ug/kg BW
[1] = system: glucose stimulated insulin secretion; experiment: Glucose stimulated insulin secretion rate AUC in prediabetic vervet monkeys (FIG. 2); assay type: in vivo; details: versus untreated
Description: Prediabetic vervet monkeys (fasting plasma glucose levels between 4.0 and 5.5 mM) were treated with 10 ug/kg RX-1 3 times daily with meals for 7 days. Blood samples were collected following 1.75 g/kg oral glucose stimulation at 0, 5, 10, 15, 30, 60, 90, 120 and 180 minutes. AUC values calculated mean glucose stimulated insulin secretion values over the time interval 0-120 min. Four monkeys were used in each group (untreated, RX1-treated).

3T3-L1 adipocytes = experiment: Glucose uptake in transformed 3T3-L1 adipocytes (colourometric glucose oxidase method); assay type: cell-based
Description: 3T3-L1 cells were transformed in culture using modified DMEM differentiation media supplemented with insulin, dexametasone and isobutylmethylxanthine and cultured for 3 days. The transformed 3T3-L1 adipocytes were then cultured for a further 5 days in modified DMEM supplemented with 10% FCS before being exposed to insulin, metformin and compounds of the present invention (see Table 1). Glucose uptake over a three (3) hour period was determined after the 5 days of treatment using a colourometric glucose oxidase method (Biovision Inc, USA).
The glucose concentration column represents the glucose concentration remaining in the media following three (3) hour exposure to the cells. The glucose uptake column represents glucose uptake from the media after a 3 hour exposure. SD represents the standard deviation. The percentage increases calculated from the relevant solvent vehicle and the P=values are reflected in the last two columns respectively.

[2] = system: gene expression in pancreas; experiment: Quantitative real-time PCR gene expression in pancreas of obese, insulin resistant Wistar rats; assay type: in vivo
Description: Three week old male rats were fed a high fat diet for 24 weeks to induce obesity and insulin resistance. Thereafter, rats were treated with 0.3 mg/kg Rx-1 daily for two weeks, and then with 3 mg/kg Rx-1 daily for seven days. Fasting glucose concentrations were measured before treatment, after two weeks treatment with 0.3 mg/kg Rx-1 and then again after seven days treatment with 3 mg/kg Rx-1. After treatment with 3 mg/kg Rx-1 rats were terminated and liver, muscle and pancreas biopsies were taken. Quantitative real-time PCR was used to measure the expression of 12 genes in liver and muscle samples, and ten genes in pancreas samples.
Rats were housed at the Primate Unit (Medical Research Council, South Africa). Rat management including feeding, glucose measurements and terminations, were done according to standard operating procedures (Diabetes Discovery Platform, Medical Research Council). Briefly, three week old rats were fed a high fat diet for 24 weeks to induce T2D. The study group consisted of thirteen rats, eight rats were treated by daily gavage with 0.3 mg/kg Rx-1 for two weeks, and then with 3 mg/kg Rx-1 for seven days. Five rats were used as controls and were treated with water only for three weeks. Rats were terminated after treatment and liver, muscle and pancreas tissue harvested and stored in RNalater (Ambion) as recommended by the manufacturer. The study was approved by the ethics committee of the Medical Research Council of South Africa.
RNA extracted from liver, muscle and pancreas tissue was converted to cDNA using the High Capacity Reverse Transcription kit as recommended by the manufacturers (Applied Biosystems). In brief, 2 μg of DNase-treated RNA was added to nuclease-free water in a volume of 10 μl. Thereafter, 2 μl reaction buffer, 0.8 μl dNTPs, 2 μl random primers, 1 μl RNase-inhibitor, 1 μl reverse transcriptase, and 3.2 μl nuclease-free water were added. The same reaction without the reverse transcription enzyme (minus RT reaction) was set-up to investigate genomic DNA contamination. Reactions were incubated at 25° C. for 10 min, 37° C. for 120 min, and 85° C. for 5 s to inactivate the reverse transcriptase. cDNA samples were stored at −20° C. until expression analysis.
For analysis of gene expression, 25 ng of cDNA prepared from liver, muscle and pancreas was mixed with 12.5 μl Taqman universal PCR master mix (Applied Biosystems), 1.25 μl gene-specific primer and probe mixtures (predeveloped Taqman gene expression assays, Applied Biosystems), and H2O in a final volume of 25 μl. The suffix _m represents an assay whose probe spans an exon-exon junction of the associated gene and therefore will not detect genomic DNA, while the suffix _s represents an assay whose primers and probes are designed within a single exon, such assays will detect genomic DNA.
The PCR reactions were conducted on the ABI 7500 Sequence Detection System Instrument (Applied Biosystems) using universal cycling conditions as described before. All samples were run in duplicate. Data generated on the ABI 7500 Instrument were analysed with the ABI Relative Quantitation (RQ) software (SDS V1.4) using a Ct threshold of 0.1. Relative expression levels were determined by using the 2^−ΔΔCt method, where ΔΔCt=(Ctgene studied−Cthousekeeping gene)treated−(Ctgene studied−Cthousekeeping gene)control. The gene expression was normalised to housekeeping genes to correct for differences in cDNA loading. Two gene expression assays, β-actin (ActB) and glyceraldehyde-3-phosphate dehydrogenase (Gapdh) (Table 1) were used as endogenous controls. Relative gene expression data generated by the RQ software for each of the two endogenous controls individually or the data normalised to the average of the two endogenous controls were imported into Microsoft Excel and analysed. […]

GLP1 = details: blood of treated OB/IR rats; other studies in our laboratory (Louw et al. 2008); cited from earlier work

glucose uptake over a 3 hour culture period (3T3-L1 adipocytes; 3T3-L1 adipose cells): significantly increased | Pcsk2 or proconvertase 2 (PC2) mRNA levels [2]: unaffected
Structure (SMILES): O=C(O)/C(=C/c1ccccc1)O[C@@H]1O[C@H](CO)[C@@H](O)[C@H](O)[C@H]1O [RX-1, 3-Phenyl-2-(3,4,5-trihydroxy-6-hydroxymethyl-tetrahydro-pyran-2-yloxy)-acrylic acid]
reduction in plasma glucose level (plasma glucose level): reduce the blood sugar of monkeys for prolonged periods of time | glycaemic control ([1]; 10 ug/kg 3 times daily for 7 days): better glycaemic control | decrease of glucose stimulated insulin secretion (AUC 0-120 min) ([1]; 10 ug/kg 3 times daily with meals for 7 days, 1.75 g/kg oral glucose stimulation, FIG. 2): 46% | Glucose conc. (3T3-L1 adipocytes; glucose remaining in the media after 3 hour exposure to the cells, media containing 8 mM glucose): 3.19 nM/ul | Glucose Uptake (3T3-L1 adipocytes; glucose uptake from the media after 3 hour exposure, media containing 8 mM glucose): 2.86 nM/ul | % uptake (3T3-L1 adipocytes; relative to DMSO vehicle = 100.00, 3 hour glucose uptake): 122.64% | nestin mRNA levels [2]: unaffected | GLP1R gene expression ([2]; not statistically significant): increased | Gcg mRNA levels ([2]; not statistically significant): increased | GcgR mRNA levels ([2]; not statistically significant): increased | Ins1 gene expression ([2]; not statistically significant): increased | Ins2 gene expression ([2]; not statistically significant): increased | Isl1 mRNA levels ([2]; not statistically significant): increased | Pdx1 gene expression ([2]; not statistically significant): increased | circulating GLP1 levels (GLP1): increased
